{"source": "patent US20030152515A1", "about": "“Method for estimating effective regimens and patient survival rates of antibiotic treatments for fatal infectious diseases” (priority 2002, published 2003)", "key": {"anthrax": {"test_system": "anthrax", "experiment": "microbe, parasite or virus in culture", "format": "cell-based", "details": "Bacillus anthracis, read-out: MIC against anthrax, mid point adopted in the analyses"}, "Bacillus anthracis": {"test_system": "Bacillus anthracis", "details": "rhesus monkey, in vivo; cited from earlier work"}, "[1]": {"test_system": "gram positive and negative organisms", "details": "cited from earlier work"}, "inhalational anthrax": {"test_system": "inhalational anthrax", "details": "human, in vivo; cited from earlier work"}}, "note": "Entries after “also recorded” stand apart in the source; their conditions may differ.", "data": [{"molecule": "O=C(O)c1cn(C2CC2)c2cc(N3CCNCC3)c(F)cc2c1=O", "note": "[ciprofloxacin]", "values": [{"measurement": "MIC", "setting": "anthrax", "value": 0.07, "unit": "µg/mL"}, {"measurement": "protection from the disease while on therapy", "setting": "Bacillus anthracis", "value": "sufficient protection; also recorded: adequately protected"}, {"measurement": "survival rate", "setting": "Bacillus anthracis", "value": 90, "unit": "%"}, {"measurement": "MIC range of organisms in the literature study", "setting": "[1]", "value": "0.008−0.4 μg/mL"}, {"measurement": "overall survival", "setting": "inhalational anthrax", "value": 55, "unit": "%"}]}]}
